US8242084B2, “Dimerized peptide” (Chugai Seiyaku Kabushiki Kaisha, priority 2003, dated 2012)
Bridge positions count the residues as written; N and C are the ends. I, II: the chains in the order shown.

System: EL4-A2402/K^b cells
Experiment: Induction of CTLs with peptide dimer: HLA-A24 transgenic mice immunised, splenocytes tested by 51Cr release assay
Format: in vivo, HLA-A24 transgenic mouse
Conditions: for CTL-inducing activity (induction of peptide-specific CTLs): HLA-A24 transgenic mouse, s.c. injection in the base of the tail, FIG. 1
Protocol: The CTL-inducing activity of the peptide dimer prepared in Example 1 was evaluated using HLA-A24 transgenic mice (Int. J. Cancer: 100, 565, 2002). The peptide dimer was dissolved in dimethyl sulfoxide (DMSO) to obtain a 40 mg/ml peptide solution. The peptide solution (35 μl) was then added to 10 mM phosphate buffer (pH 7.5) (581 μl) to obtain a peptide suspension. The resultant peptide suspension (550 μl) and Montanide ISA51 (Seppic) (700 μl) were mixed using a connected glass syringe to prepare an emulsion as an administration solution.
The administration solution (200 μl) was injected into an HLA-A24 transgenic mouse subcutaneously in the base of the tail. Three mice were used. Seven days after the injection, the spleen was removed and splenocytes were prepared. A portion of the splenocytes was pulsed with the peptide dimer (100 μg/ml) for 1 hour. Splenocytes not pulsed with the peptide were seeded into a 24-well plate at 7×10^6 cells/well and thereto were added the above-mentioned splenocytes pulsed with the peptide (1×10^6 cells/well), and the plate was incubated. The incubation was conducted in RPMI1640 medium supplemented with 10% FCS, 10 mM HEPES, 20 mM L-glutamine, 1 mM sodium pyruvate, 1 mM MEM nonessential amino acids, 1% MEM vitamin and 55 μM 2-mercaptoethanol for 5 days.
The cultured splenocytes were examined for the cytotoxic activity specific for the peptide used in the administration by ^51Cr release assay (J. Immunol.: 159, 4753, 1997). EL4-A2402/K^b cells obtained by transforming EL-4 cells (ATCC No. TIB-39) in such a manner that a chimera MHC class I molecule of HLA-A24 and H2K^b (Int. J. Cancer: 100, 565, […]) are expressed stably were used as the target cells. The target cells were labeled with ^51Cr (3.7 MBq/10^6 cells) and pulsed with the peptide at 100 μg/ml for an hour. For control, target cells not pulsed with the peptide were labeled with ^51Cr for 2 hours. Those labeled target cells and the previously prepared splenocytes were mixed at a ratio of 1:120, cultured for 4 hours and the CTL activity was evaluated on the basis of the percent of damaged target cells.

Substance: Example 1: Dimer of two H-Cys-Tyr-Thr-Trp-Asn-Gln-Met-Asn-Leu-OH (SEQ ID NO:44) monomers, made by air oxidation, bound through a disulfide bond (chain 1 H-CYTWNQMNL-OH; chain 2 H-CYTWNQMNL-OH; disulfide I:1-II:1; SMILES CSCC[C@H](NC(=O)[C@H](CCC(N)=O)NC(=O)[C@H](CC(N)=O)NC(=O)[C@H](Cc1c[nH]c2ccccc12)NC(=O)[C@@H](NC(=O)[C@H](Cc1ccc(O)cc1)NC(=O)[C@@H](N)CSSC[C@H](N)C(=O)N[C@@H](Cc1ccc(O)cc1)C(=O)N[C@H](C(=O)N[C@@H](Cc1c[nH]c2ccccc12)C(=O)N[C@@H](CC(N)=O)C(=O)N[C@@H](CCC(N)=O)C(=O)N[C@@H](CCSC)C(=O)N[C@@H](CC(N)=O)C(=O)N[C@@H](CC(C)C)C(=O)O)[C@@H](C)O)[C@@H](C)O)C(=O)N[C@@H](CC(N)=O)C(=O)N[C@@H](CC(C)C)C(=O)O)
- CTL-inducing activity (induction of peptide-specific CTLs): CTLs specific for the peptide were induced
- CTL-inducing activity (induction of peptide-specific CTLs) (listed as peptide dimer (SEQ ID NO: 44)): induces CTLs
- cytotoxic activity of splenocytes on target cells not pulsed with the peptide (control) (same splenocytes, target cells not pulsed with the peptide, ratio 1:120, 4 hours): only weak cytotoxicity
- cytotoxic activity of splenocytes on target cells pulsed with the peptide (percent of damaged target cells) (splenocytes from mice injected s.c. with emulsion (Montanide ISA51), 7 days, target cells pulsed with peptide 100 μg/ml, target:splenocyte ratio 1:120, 4 hours): injured strongly
